Measurements reported in US6794416B2, “Methods, compositions and modes of delivery for the treatment of emphysema using 13-cis-retinoic acid” (Syntex (U.S.A.) LLC, priority 2000, dated 2004).
Where two headings read alike, the source gives them in different places. Marks after values point to notes of the source that are not given here.

How the values were obtained:
[1] = parameters: species or system male Sprague Dawley rats; conditions: rat, in vivo, po
Experimental: (§1) Animals treated with ATRA and 13-cis-retinoic acid prepared in Capmul at the dosage ranges enumerated in Table 6 were dosed orally once per day starting 21 days post injury. Control groups were challenged with elastase and 21 days later were treated with vehicle (Capmul solution) for 14 days. Animals were sacrificed 24 hours after the last dose by exsanguination under deep anesthesia. Blood was collected at time of exsanguination for analysis.
Quantitation of triglycerides contained in rat plasma was performed using established procedures in a contact clinical laboratory facility. Briefly, plasma triglycerides were converted to dihdroxyacetone and hydrogen peroxide by sequential treatment of plasma with lipase and glycerokinase according directions described by the manufacturer of triglycerides/GPO kit (Boehringer Mannheim #1488872). Hydrogen peroxide was quantitated colorimetrically in a Hitachi 911 Chemistry Analyzer. In rats normal triglyceride levels are between about 75 mg/dl and about 175 mg/dl.
Triglyceride values are a convenient measure of toxicity. […] Furthermore, at every dosage level tested, the triglyceride levels observed with 13-cis-retinoic acid were lower than that observed for ATRA.

[2] = system: rat model of elastase-induced emphysema; assay: alveolar repair in the rat model of elastase-induced emphysema; type: in vivo, male Sprague Dawley rats; conditions: for % Alveolar Repair: starting 21 days post elastase injury, relative to elastase + vehicle
Experimental: All-trans retinoic acid (ATRA) and 13-cis-retinoic acid were evaluated for their effects on alveolar repair in the rat model of elastase-induced emphysema (Massaro et al., Nature, 1997, Vol. 3, No. 6:675; Massaro et al., U.S. Pat. No. 5,998,486). Animals were divided into treatment groups of approximately eight. Lung inflammation and alveolar damage was induced in male Sprague Dawley rats by a single instillation of about 2 U/gram body mass of pancreatic elastase (porcine derived, Calbiochem).
as §1
The lungs were inflated with 10% neutral buffered formalin by intratracheal instillation at a constant rate (1 ml/gram body mass/min). The lung was excised and immersed in fixative for 24 hours prior to processing. Alveolar measurements were made in four regions of the lung/rat. The mean value/treatment group was determined by summing the average area/rat for all eight rats relative to the elastase+ vehicle treated group. […] Standard methods were used to prepare 5 μm paraffin sections. Sections were stained with Hematoxylin and Eosin. Computerized Morphometric analysis was performed to determine the average alveolar size and alveolar number.

[3] = oral dose 0.1 mg/kg once per day
[4] = oral dose 1.0 mg/kg once per day
[5] = oral dose 10.0 mg/kg once per day

SMILES	Triglyceride ([1]; 0.001 mg/kg) [mg/dL]	Triglyceride ([1]; 0.01 mg/kg) [mg/dL]	Triglyceride ([1]; 0.1 mg/kg) [mg/dL]	Triglyceride ([1]; 1 mg/kg) [mg/dL]	Triglyceride ([1]; 10 mg/kg) [mg/dL]	statistical significance of alveolar repair relative to elastase treated control ([2]; dosage of 0.001 mg/kg)	statistical significance of alveolar repair relative to elastase treated control ([2]; dosage range from 10.0 mg/kg to as low as 0.01 mg/kg)	% Alveolar Repair ([2]; oral dose 0.001 mg/kg once per day)	% Alveolar Repair ([2]; oral dose 0.01 mg/kg once per day) [%]	% Alveolar Repair [2, 3]	% Alveolar Repair [2, 4] [%]	% Alveolar Repair [2, 5] [%]	Triglyceride ([1]; 0.3 mg/kg) [mg/dL]	Triglyceride ([1]; 3 mg/kg) [mg/dL]	statistical significance of alveolar repair relative to elastase treated control ([2]; dosages below 0.3 mg/kg)	% Alveolar Repair ([2]; oral dose 0.3 mg/kg once per day)	% Alveolar Repair ([2]; oral dose 3.0 mg/kg once per day) [%]
CC1=C(/C=C/C(C)=C/C=C/C(C)=C\C(=O)O)C(C)(C)CCC1 [13-cis-retinoic acid, (13Z)-retinoic acid]	125	73	82	128	147	statistically insignificant	statistically significant	12* %	38	30%	45	56	–	–	–	–	–
CC1=C(/C=C/C(C)=C/C=C/C(C)=C/C(=O)O)C(C)(C)CCC1 [ATRA, All-trans retinoic acid]	–	–	152	175	378	–	–	–	–	8.8* %	45	53	149	307	not statistically significant	30* %	47
